In assay [1] the target is T1, cold-active Vibrio alkaline phosphatase (VAP) (Vibrio sp. G15-21, UniProt Q93P54).
T1 sequence (Q93P54 20-521): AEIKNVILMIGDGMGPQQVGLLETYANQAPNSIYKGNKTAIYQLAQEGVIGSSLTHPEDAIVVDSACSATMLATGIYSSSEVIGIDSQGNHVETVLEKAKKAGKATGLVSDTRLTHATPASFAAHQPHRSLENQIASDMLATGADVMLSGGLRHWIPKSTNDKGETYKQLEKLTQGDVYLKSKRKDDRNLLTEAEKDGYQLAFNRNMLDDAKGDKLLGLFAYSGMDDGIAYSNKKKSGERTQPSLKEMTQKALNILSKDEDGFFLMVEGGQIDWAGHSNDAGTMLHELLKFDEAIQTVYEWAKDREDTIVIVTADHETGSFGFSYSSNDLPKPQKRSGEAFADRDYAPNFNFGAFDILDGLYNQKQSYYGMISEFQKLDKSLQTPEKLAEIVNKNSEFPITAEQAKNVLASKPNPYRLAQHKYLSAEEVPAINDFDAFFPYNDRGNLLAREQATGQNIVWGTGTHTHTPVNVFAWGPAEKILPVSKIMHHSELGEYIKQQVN
As to the kind of experiment: inhibition of native alkaline phosphatase activity at pH […] (n = […]). The format is biochemical.

Assay [2] addresses phosphoinositide-specific phospholipase C (PI-PLC) (Bacillus cereus, UniProt P14262). As to the kind of experiment: inhibition of phospholipase activity of commercial PI-PLC on PI-containing large unilamellar vesicles (turbidity/aggregation assay). The format is biochemical.

This passage reports IC50 results from PMC3733634, “A Computational Module Assembled from Different Protease Family Motifs Identifies PI PLC from Bacillus cereus as a Putative Prolyl Peptidase with a Serine Protease Scaffold” (PLoS ONE, 2013).

Where a name gives a salt, the structure may show the parent alone.

Chain of phosphoinositide-specific phospholipase C (PI-PLC) (P14262 32-329 limits assumed): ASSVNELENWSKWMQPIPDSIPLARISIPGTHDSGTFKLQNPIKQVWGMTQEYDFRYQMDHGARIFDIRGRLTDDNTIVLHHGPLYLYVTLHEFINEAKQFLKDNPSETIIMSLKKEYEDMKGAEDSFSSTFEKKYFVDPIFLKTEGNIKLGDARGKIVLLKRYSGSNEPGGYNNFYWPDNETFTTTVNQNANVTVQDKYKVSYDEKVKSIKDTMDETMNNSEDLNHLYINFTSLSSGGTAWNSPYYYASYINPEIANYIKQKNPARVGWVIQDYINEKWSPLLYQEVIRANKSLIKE

On to `NCCc1ccc(S(=O)(=O)F)cc1` [AEBSF, 4-(2-aminoethyl) benzenesulfonyl fluoride hydrochloride], for which the IC50 in assay [1] was 350 µM; in assay [2], 18 µM.
